From BindingDB's records for doi:10.1016/s0960-894x(98)00106-1 (Oregon State University, 1999)

Test: Compound was evaluated for the inhibition of L-pipecolate oxidase(LPO) isolated from frozen Rhesus monkey liver

Work on O=C(O)[C@H]1NC[C@@H]2O[C@@H]21 [(1R,2S,5S)-6-Oxa-3-aza-bicyclo[3.1.0]hexane-2-carboxylic acid] yielded an IC50 of 200 µM.
